Assays:
Human δ-opioid (DOP) = molecular target: T1, Human δ-opioid (DOP) (Homo sapiens, UniProt P41143); test: Radioligand binding, human δ-opioid (DOP) membranes, FlashPlate, [3H]-Bremazocine; details: compound at 10 μM, [3H]-Bremazocine; for A1: inhibition of radioligand binding: human DOP membranes
T1 construct: purchased Perkin Elmer Biosignal
In short: (§1)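 Cloned human receptor membranes were coated onto FlashPlate wells and incubated with radioligand and compound (added from a 0.5 mM DMSO daughter plate) for 1 hour at room temperature in the dark. Scintillation counting gave percent inhibition, with DMSO defining total and reference ligand defining non-specific binding.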

Human κ-Opioid (KOP) = molecular target: T2, Human κ-Opioid (KOP) (Homo sapiens, UniProt P41145); test: Radioligand binding, human κ-opioid (KOP) membranes, filtration, [3H]-Diprenorphine; details: compound at 10 μM, [3H]-Diprenorphine; for A2: inhibition of radioligand binding: human KOP membranes
T2 construct: purchased Perkin Elmer Biosignal
In short: (§2)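 Filtration binding on cloned human receptor membranes (1 Unit/well), [125I]-Substance P for NK1 and [3H]-Diprenorphine for KOP, 1 h at room temperature. Filters PEI-presoaked, washed with cold 50 mM Tris-HCl pH 7.4, counted by scintillation; percent inhibition calculated, reference ligand defining non-specific binding.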

Human Melanocortin (MC3) = molecular target: T3, Human Melanocortin (MC3) (Homo sapiens, UniProt P41968); test: Radioligand binding, human melanocortin MC3 membranes, FlashPlate, [125I]-NDP-αMSH; details: compound at 10 μM, [125I]-NDP-αMSH; for A3: inhibition of radioligand binding: human MC3 membranes
T3 construct: purchased Perkin Elmer Biosignal
In short: as §1

Human Melanocortin (MC4) = molecular target: T4, Human Melanocortin (MC4) (Homo sapiens, UniProt P32245); test: Radioligand binding, human melanocortin MC4 membranes, FlashPlate, [125I]-NDP-αMSH; details: compound at 10 μM, [125I]-NDP-αMSH; for A4: inhibition of radioligand binding: human MC4 membranes
T4 construct: purchased Perkin Elmer Biosignal
In short: as §1

Human melanocortin (MC5) = molecular target: T5, Human melanocortin (MC5) (Homo sapiens, UniProt P33032); test: Radioligand binding, human melanocortin MC5 membranes, FlashPlate, [125I]-NDP-αMSH; details: compound at 10 μM, [125I]-NDP-αMSH; for A5: inhibition of radioligand binding: human MC5 membranes
T5 construct: purchased Perkin Elmer Biosignal
In short: as §1

[1] = molecular target: T6, Human melanin-concentrating hormone (MCH1) (Homo sapiens, UniProt Q99705); test: Radioligand binding, human melanin-concentrating hormone MCH1 membranes, FlashPlate, [125I]-S36057; details: compound at 10 μM; for A6: inhibition of radioligand binding: [125I]-S36057, human MCH1 membranes
T6 construct: purchased Perkin Elmer Biosignal
In short: as §1

Human μ-opioid (MOP) = molecular target: T7, Human μ-opioid (MOP) (Homo sapiens, UniProt P35372); test: Radioligand binding, human μ-opioid (MOP) membranes, FlashPlate, [3H]-Naloxone; details: compound at 10 μM, [3H]-Naloxone; for A7: inhibition of radioligand binding: human MOP membranes
T7 construct: purchased Perkin Elmer Biosignal
In short: as §1

Human neurokinin (NK1) = molecular target: T8, Human neurokinin (NK1) (Homo sapiens, UniProt P25103); test: Radioligand binding, human neurokinin NK1 membranes, filtration, [125I]-Substance P; details: compound at 10 μM, [125I]-Substance P; for A8: inhibition of radioligand binding: human NK1 membranes
T8 construct: purchased Perkin Elmer Biosignal
In short: as §2

[2] = molecular target: T9, Human neuropeptide Y (NPY-Y1) (Homo sapiens, UniProt P25929); test: Radioligand binding, human neuropeptide Y NPY-Y1 membranes, FlashPlate, [125I]-PYY; details: compound at 10 μM, [125I]-PYY; for A9: inhibition of radioligand binding: human NPY-Y1 membranes
T9 construct: purchased Perkin Elmer Biosignal
T9 sequence (P25929 1-384): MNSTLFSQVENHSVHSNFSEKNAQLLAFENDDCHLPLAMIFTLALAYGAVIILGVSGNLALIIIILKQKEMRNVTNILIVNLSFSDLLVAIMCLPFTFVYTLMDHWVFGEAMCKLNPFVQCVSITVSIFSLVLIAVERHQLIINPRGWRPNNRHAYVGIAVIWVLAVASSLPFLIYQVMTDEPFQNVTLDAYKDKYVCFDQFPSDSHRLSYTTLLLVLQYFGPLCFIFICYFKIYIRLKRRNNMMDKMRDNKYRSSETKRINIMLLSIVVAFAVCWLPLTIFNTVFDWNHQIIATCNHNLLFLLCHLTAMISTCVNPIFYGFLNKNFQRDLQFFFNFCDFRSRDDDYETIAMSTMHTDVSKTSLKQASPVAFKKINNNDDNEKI
In short: as §1

Human opioid (ORL1) = molecular target: T10, Human opioid (ORL1) (Homo sapiens, UniProt P41146); test: Radioligand binding, human opioid ORL1 membranes, FlashPlate, [125I]-Nociceptin; details: compound at 10 μM, [125I]-Nociceptin; for A10: inhibition of radioligand binding: human ORL1 membranes
T10 construct: purchased Perkin Elmer Biosignal
In short: as §1

Mouse urotensin (mUR2) = molecular target: T11, Mouse urotensin (mUR2) (Mus musculus, UniProt Q8VIH9); test: Radioligand binding, mouse urotensin mUR2 membranes, FlashPlate, [125I]-Urotensin II; details: compound at 10 μM, [125I]-Urotensin II; for A11: inhibition of radioligand binding: mouse mUR2 membranes
T11 construct: purchased Perkin Elmer Biosignal
T11 sequence (Q8VIH9 1-385): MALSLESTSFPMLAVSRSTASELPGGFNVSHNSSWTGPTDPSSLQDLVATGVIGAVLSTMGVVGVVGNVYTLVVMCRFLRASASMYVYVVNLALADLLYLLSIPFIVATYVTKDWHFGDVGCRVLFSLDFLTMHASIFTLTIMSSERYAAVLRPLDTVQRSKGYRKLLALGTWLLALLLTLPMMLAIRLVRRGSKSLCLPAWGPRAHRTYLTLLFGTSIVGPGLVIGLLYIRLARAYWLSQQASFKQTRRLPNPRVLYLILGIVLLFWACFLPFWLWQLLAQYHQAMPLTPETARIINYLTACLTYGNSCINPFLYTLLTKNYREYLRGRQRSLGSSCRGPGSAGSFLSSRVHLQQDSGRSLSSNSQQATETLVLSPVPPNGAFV
In short: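 Cloned mouse urotensin (mUR2) receptor membranes from Perkin Elmer Biosignal were immobilized in FlashPlate microplates using a proprietary coating. Each well got 19.5 μl buffer, then 0.5 μl of DMSO, reference ligand, or compound. Adding 5 μl of [125I]-Urotensin II, diluted to 5× final concentration in binding buffer, started binding. Plates were sealed with TopSeal-A and incubated 1 hour at room temperature in the dark. Wells were counted for 30 seconds each on a TopCount after a 60-second delay, and percentage inhibition was calculated.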

T3 sequence (P41968 whole entry): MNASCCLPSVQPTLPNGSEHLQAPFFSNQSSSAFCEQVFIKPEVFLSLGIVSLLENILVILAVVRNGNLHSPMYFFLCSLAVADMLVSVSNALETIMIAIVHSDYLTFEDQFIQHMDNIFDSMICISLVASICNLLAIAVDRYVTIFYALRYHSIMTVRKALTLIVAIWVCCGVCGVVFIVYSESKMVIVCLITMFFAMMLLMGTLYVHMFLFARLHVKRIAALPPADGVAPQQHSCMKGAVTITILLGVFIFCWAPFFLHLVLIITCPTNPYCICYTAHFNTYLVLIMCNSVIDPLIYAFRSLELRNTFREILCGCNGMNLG
T6 sequence (Q99705 whole entry): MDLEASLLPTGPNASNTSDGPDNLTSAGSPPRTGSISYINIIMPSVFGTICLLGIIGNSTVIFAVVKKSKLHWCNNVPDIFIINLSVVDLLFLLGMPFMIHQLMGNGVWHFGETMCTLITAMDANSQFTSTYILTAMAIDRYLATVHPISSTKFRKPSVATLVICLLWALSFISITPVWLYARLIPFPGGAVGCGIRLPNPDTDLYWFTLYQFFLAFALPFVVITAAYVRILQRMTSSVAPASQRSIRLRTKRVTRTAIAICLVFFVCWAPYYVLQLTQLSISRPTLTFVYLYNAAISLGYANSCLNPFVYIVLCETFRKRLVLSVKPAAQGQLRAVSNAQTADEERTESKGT
T2 sequence (P41145 whole entry): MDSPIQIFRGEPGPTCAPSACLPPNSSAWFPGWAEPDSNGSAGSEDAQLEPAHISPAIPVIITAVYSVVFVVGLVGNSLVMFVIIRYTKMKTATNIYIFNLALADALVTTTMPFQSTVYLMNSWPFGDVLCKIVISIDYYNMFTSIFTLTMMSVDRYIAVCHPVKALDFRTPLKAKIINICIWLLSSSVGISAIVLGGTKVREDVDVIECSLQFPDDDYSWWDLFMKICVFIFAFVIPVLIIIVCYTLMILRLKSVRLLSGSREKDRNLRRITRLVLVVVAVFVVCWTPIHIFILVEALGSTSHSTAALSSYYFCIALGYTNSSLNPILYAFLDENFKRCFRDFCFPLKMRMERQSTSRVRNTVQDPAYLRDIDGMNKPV
T10 sequence (P41146 whole entry): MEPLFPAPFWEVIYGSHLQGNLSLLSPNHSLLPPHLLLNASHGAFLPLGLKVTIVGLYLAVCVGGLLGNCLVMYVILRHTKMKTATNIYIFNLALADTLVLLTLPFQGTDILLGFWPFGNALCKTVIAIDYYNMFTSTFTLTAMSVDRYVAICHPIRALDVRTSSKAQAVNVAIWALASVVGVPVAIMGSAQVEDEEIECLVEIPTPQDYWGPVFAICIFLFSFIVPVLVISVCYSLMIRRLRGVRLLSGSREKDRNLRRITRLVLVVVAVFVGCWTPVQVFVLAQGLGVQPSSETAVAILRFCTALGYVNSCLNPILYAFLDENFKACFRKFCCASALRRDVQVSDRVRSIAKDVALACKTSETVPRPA
T8 sequence (P25103 whole entry): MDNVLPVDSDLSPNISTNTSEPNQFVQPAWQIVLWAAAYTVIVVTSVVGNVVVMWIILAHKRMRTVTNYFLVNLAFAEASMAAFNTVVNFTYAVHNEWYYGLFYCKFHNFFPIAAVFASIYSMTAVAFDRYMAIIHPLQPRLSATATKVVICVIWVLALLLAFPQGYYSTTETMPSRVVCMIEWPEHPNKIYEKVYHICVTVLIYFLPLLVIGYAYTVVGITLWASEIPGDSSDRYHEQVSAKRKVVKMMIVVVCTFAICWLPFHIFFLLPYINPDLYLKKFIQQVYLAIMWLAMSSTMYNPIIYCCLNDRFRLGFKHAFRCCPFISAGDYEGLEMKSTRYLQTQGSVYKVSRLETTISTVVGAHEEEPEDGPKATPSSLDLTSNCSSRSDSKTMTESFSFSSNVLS
T4 sequence (P32245 whole entry): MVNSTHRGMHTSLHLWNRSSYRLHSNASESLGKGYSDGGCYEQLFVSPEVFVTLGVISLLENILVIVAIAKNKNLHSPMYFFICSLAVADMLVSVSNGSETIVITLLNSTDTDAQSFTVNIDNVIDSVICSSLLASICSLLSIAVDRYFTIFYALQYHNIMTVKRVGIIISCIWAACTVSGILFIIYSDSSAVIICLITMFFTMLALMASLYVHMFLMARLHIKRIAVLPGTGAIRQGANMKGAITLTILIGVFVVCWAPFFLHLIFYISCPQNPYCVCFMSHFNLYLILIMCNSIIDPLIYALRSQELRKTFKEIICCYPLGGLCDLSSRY
T1 sequence (P41143 whole entry): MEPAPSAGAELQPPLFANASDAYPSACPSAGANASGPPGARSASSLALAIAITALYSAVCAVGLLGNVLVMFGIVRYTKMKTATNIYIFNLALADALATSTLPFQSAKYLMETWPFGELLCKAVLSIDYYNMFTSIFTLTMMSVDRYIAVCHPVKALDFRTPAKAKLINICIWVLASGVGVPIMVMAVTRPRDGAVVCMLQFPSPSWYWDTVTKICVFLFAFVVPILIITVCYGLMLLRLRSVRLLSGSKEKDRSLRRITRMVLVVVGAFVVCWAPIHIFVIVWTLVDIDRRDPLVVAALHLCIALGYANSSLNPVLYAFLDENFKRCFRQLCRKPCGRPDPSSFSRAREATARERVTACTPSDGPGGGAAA
T7 sequence (P35372 whole entry): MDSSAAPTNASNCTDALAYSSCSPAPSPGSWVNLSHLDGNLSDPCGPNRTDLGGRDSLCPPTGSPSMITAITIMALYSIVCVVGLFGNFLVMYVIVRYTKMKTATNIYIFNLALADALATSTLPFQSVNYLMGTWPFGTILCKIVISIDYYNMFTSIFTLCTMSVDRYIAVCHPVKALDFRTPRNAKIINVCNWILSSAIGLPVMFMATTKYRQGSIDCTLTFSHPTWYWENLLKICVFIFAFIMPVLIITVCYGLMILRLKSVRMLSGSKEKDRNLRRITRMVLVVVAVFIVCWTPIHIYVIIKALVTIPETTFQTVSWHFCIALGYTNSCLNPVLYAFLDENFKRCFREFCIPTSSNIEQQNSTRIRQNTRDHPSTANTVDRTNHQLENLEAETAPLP
T5 sequence (P33032 whole entry): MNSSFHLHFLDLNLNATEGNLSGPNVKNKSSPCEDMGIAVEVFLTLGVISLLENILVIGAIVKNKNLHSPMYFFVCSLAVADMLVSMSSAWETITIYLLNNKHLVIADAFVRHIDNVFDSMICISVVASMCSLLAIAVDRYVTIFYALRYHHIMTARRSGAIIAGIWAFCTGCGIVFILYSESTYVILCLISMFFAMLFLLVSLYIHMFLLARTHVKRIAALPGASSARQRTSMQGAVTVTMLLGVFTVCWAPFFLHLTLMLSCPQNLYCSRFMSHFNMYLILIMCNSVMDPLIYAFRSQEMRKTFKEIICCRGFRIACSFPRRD

Row | SMILES | A1: inhibition of radioligand binding, human δ-opioid (DOP) (Human δ-opioid (DOP)) | A3: inhibition of radioligand binding, human melanocortin (MC3) (Human Melanocortin (MC3); 10 µM) | A4: inhibition of radioligand binding, human melanocortin (MC4) (Human Melanocortin (MC4); 10 µM) | A5: inhibition of radioligand binding, human melanocortin (MC5) (Human melanocortin (MC5)) | A7: inhibition of radioligand binding, human μ-opioid (MOP) (Human μ-opioid (MOP)) | A8: inhibition of radioligand binding, human neurokinin (NK1) (Human neurokinin (NK1)) | A9: inhibition of radioligand binding, human neuropeptide Y (NPY-Y1) [2] | A11: inhibition of radioligand binding, mouse urotensin (mUR2) (Mouse urotensin (mUR2)) | A1: inhibition of radioligand binding (Human δ-opioid (DOP)) | A2: inhibition of radioligand binding (Human κ-Opioid (KOP)) | A5: inhibition of radioligand binding (Human melanocortin (MC5)) | A7: inhibition of radioligand binding (Human μ-opioid (MOP)) | A8: inhibition of radioligand binding (Human neurokinin (NK1)) | A9: inhibition of radioligand binding [2] | A11: inhibition of radioligand binding (Mouse urotensin (mUR2)) | also measured
1 | CO[C@H]1[C@H](O)[C@@H](COCc2ccc3ccccc3c2)OC(OCc2ccc(Cl)cc2)[C@@H]1NC(=O)CCNC(=N)N (stereo partly shown) [compound 98] | – | – | – | – | – | – | – | – | – | – | – | – | – | – | – | A1 radioligand binding, percentage inhibition (Human δ-opioid (DOP)): − (“−” indicates less than 50% inhibition at 10 μM); A2 radioligand binding, percentage inhibition (Human κ-Opioid (KOP)): − (“−” indicates less than 50% inhibition at 10 μM); A3 radioligand binding, percentage inhibition (Human Melanocortin (MC3)): − (“−” indicates less than 50% inhibition at 10 μM); A4 radioligand binding, percentage inhibition (Human Melanocortin (MC4)): + (“+” indicates greater than 50% inhibition at 10 μM); A5 radioligand binding, percentage inhibition (Human melanocortin (MC5)): + (“+” indicates greater than 50% inhibition at 10 μM); A6 radioligand binding, percentage inhibition ([1]; [125I]-S36057): + (“+” indicates greater than 50% inhibition at 10 μM); A7 radioligand binding, percentage inhibition (Human μ-opioid (MOP)): − (“−” indicates less than 50% inhibition at 10 μM); A8 radioligand binding, percentage inhibition (Human neurokinin (NK1)): + (“+” indicates greater than 50% inhibition at 10 μM); A9 radioligand binding, percentage inhibition [2]: − (“−” indicates less than 50% inhibition at 10 μM); A10 radioligand binding, percentage inhibition (Human opioid (ORL1)): − (“−” indicates less than 50% inhibition at 10 μM); A11 radioligand binding, percentage inhibition (Mouse urotensin (mUR2)): − (“−” indicates less than 50% inhibition at 10 μM)
2 | N=C(N)NCCC(=O)N[C@H]1C(OCc2ccc(Cl)cc2)O[C@H](COCc2ccc(Cl)cc2)[C@@H](O)[C@@H]1OCc1ccc(Cl)cc1 (stereo partly shown) [compound 526] | − (“−” indicates less than 50% inhibition at 10 μM) | − (“−” indicates less than 50% inhibition at 10 μM) | − (“−” indicates less than 50% inhibition at 10 μM) | + (“+” indicates greater than 50% inhibition at 10 μM) | − (“−” indicates less than 50% inhibition at 10 μM) | + (“+” indicates greater than 50% inhibition at 10 μM) | − (“−” indicates less than 50% inhibition at 10 μM) | − (“−” indicates less than 50% inhibition at 10 μM) | – | – | – | – | – | – | – | A2: inhibition of radioligand binding, human κ-opioid (KOP) (Human κ-Opioid (KOP); 10 µM): − (“−” indicates less than 50% inhibition at 10 μM); A6: inhibition of radioligand binding, human melanin-concentrating hormone (MCH1) ([1]; [125I]-S36057): + (“+” indicates greater than 50% inhibition at 10 μM); A10: inhibition of radioligand binding, human opioid (ORL1) (Human opioid (ORL1)): − (“−” indicates less than 50% inhibition at 10 μM)
3 | NCCC(=O)NC1C(OCc2ccc3ccccc3c2)OC(COCc2ccccc2)C(O)C1OCc1ccc(Cl)cc1 (stereo not shown) [compound 382] | – | – | – | – | – | – | – | – | − (“−” indicates less than 50% inhibition at 10 μM) | − (“−” indicates less than 50% inhibition at 10 μM) | + (“+” indicates greater than 50% inhibition at 10 μM) | − (“−” indicates less than 50% inhibition at 10 μM) | + (“+” indicates greater than 50% inhibition at 10 μM) | − (“−” indicates less than 50% inhibition at 10 μM) | − (“−” indicates less than 50% inhibition at 10 μM) | A3: inhibition of radioligand binding (Human Melanocortin (MC3)): − (“−” indicates less than 50% inhibition at 10 μM); A4: inhibition of radioligand binding (Human Melanocortin (MC4)): + (“+” indicates greater than 50% inhibition at 10 μM); A6: inhibition of radioligand binding [1]: − (“−” indicates less than 50% inhibition at 10 μM); A10: inhibition of radioligand binding (Human opioid (ORL1)): − (“−” indicates less than 50% inhibition at 10 μM)
4 | NCCCC(=O)NC1C(OCc2ccc3ccccc3c2)OC(COCc2ccc3ccccc3c2)C(O)C1OCc1ccccc1 (single isomer, unassigned) [compound 466] | – | – | – | – | – | – | – | – | − (“−” indicates less than 50% inhibition at 10 μM) | − (“−” indicates less than 50% inhibition at 10 μM) | + (“+” indicates greater than 50% inhibition at 10 μM) | − (“−” indicates less than 50% inhibition at 10 μM) | + (“+” indicates greater than 50% inhibition at 10 μM) | − (“−” indicates less than 50% inhibition at 10 μM) | − (“−” indicates less than 50% inhibition at 10 μM) | A3: inhibition of radioligand binding (Human Melanocortin (MC3); 10 µM): − (“−” indicates less than 50% inhibition at 10 μM); A4: inhibition of radioligand binding (Human Melanocortin (MC4); 10 µM): + (“+” indicates greater than 50% inhibition at 10 μM); A6: inhibition of radioligand binding ([1]; 10 µM): + (“+” indicates greater than 50% inhibition at 10 μM); A10: inhibition of radioligand binding (Human opioid (ORL1); 10 µM): + (“+” indicates greater than 50% inhibition at 10 μM)
5 | NCCC(=O)NC1C(OCc2ccc(Cl)cc2)OC(COCc2ccc3ccccc3c2)C(O)C1OCc1ccc2ccccc2c1 (single isomer, unassigned) [compound 477] | − (“−” indicates less than 50% inhibition at 10 μM) | − (“−” indicates less than 50% inhibition at 10 μM) | − (“−” indicates less than 50% inhibition at 10 μM) | + (“+” indicates greater than 50% inhibition at 10 μM) | − (“−” indicates less than 50% inhibition at 10 μM) | + (“+” indicates greater than 50% inhibition at 10 μM) | − (“−” indicates less than 50% inhibition at 10 μM) | − (“−” indicates less than 50% inhibition at 10 μM) | – | – | – | – | – | – | – | A2: inhibition of radioligand binding, human κ-opioid (KOP) (Human κ-Opioid (KOP)): − (“−” indicates less than 50% inhibition at 10 μM); A6: inhibition of radioligand binding, human melanin-concentrating hormone (MCH1) ([1]; [125I]-S36057, 10 µM): − (“−” indicates less than 50% inhibition at 10 μM); A10: inhibition of radioligand binding, human opioid (ORL1) (Human opioid (ORL1); 10 µM): + (“+” indicates greater than 50% inhibition at 10 μM)
